row,melting point,SMILES
1,184 to 185 °C,C1=Cc2cccnc2N(C2CC2)c2ncccc21
2,172 to 175 °C,Cc1ccc(-c2nnn(C(c3ccccc3)(c3ccccc3)c3ccccc3)n2)cc1
3,175 to 176 °C,CS(=O)(=O)c1ccc(Oc2cc(OCc3cccc(Cl)n3)c3[nH]c(C4=NCC(CC(=O)O)S4)cc3c2)cc1 (configuration not stated)
4,218 to 221 °C,Cc1nc2c(O)c(CCC(=O)c3ccccc3F)c(C(=O)N(C)C)cc2n1C
5,221 to 223 °C,COc1cccc([C@H]2O[C@H](CC(=O)NS(C)(=O)=O)C(=O)N(CC(C)(C)CO)c3ccc(Cl)cc32)c1OC
6,182 to 183 °C,Cc1sc(C(N)=O)c2c1-c1nn(Cc3ccccc3)cc1CC2
7,155 to 157 °C,CC(O)Cn1c(COCc2ccccc2)nc(C(C)C)c1Sc1cc(Cl)cc(Cl)c1 (configuration not stated)
8,274 to 275 °C,Cc1cc2c(s1)Oc1ccc(F)cc1NC2=O
9,175 °C,COC(=O)c1cnn(O)c1
10,176 to 178 °C,CC(=O)NCC(C)n1nnnc1S (configuration not stated)
11,160 to 165 °C,COC(=O)C=C(c1ccccc1)c1ccc2nc(N)n(S(=O)(=O)C(C)C)c2c1
12,148 °C,Nc1ccc(Cl)nc1I
13,206 to 208 °C,Cc1ncccc1CN(CCn1cc(C)c2occc2c1=O)Cc1ccc2c(c1)N(CC(C)C)C(=O)C(C)(C)C(=O)N2
14,110 °C,Cc1ccc(Oc2cccc(NC(=O)c3ccn4c3CSC4c3cccnc3)c2)cc1 (configuration not stated)
15,135 to 136 °C,O=S(=O)(NCCc1cccc(CCNS(=O)(=O)c2ccc(Cl)cc2)c1)c1ccc(Cl)cc1
16,130 to 131 °C,COc1ccc(C=O)c(Oc2ccc(Cl)cc2[N+](=O)[O-])c1
17,188 to 190 °C,CC1(C)OC(=O)Nc2ccc(-c3cccc(CC#N)c3)cc21
18,76.8 to 77 °C,CN(C)c1ccc(C=NCCc2cccs2)cc1
19,123 to 125 °C,C=C(C)c1ccc(C2=NC(=O)C(C)(C(=C)C)N2)nc1 (configuration not stated)
20,200 to 203 °C,O=CN1CCN(C2=C(O)C(=O)c3ccccc3C2=O)CC1
21,131 to 132 °C,O=C1c2ccccc2CN1CSc1ccncc1
22,208 to 211 °C,CC(=O)NCC(=NNC(N)=S)c1ccccc1
23,110 to 112 °C,COc1ccc(Nc2ccccc2CCC(=O)c2ccccc2)cc1
24,70 to 71 °C,CCCCCCCC/C=C\c1ccc(C(=O)NOCc2ccccc2)cc1

row,melting point,SMILES
1,185 to 187 °C,COc1cccc(C=Cc2nc3c(s2)N(C(C)=O)CCC3)c1OC
2,156 to 158 °C,Cc1ccnc(C(O)c2ccc(N)cc2)c1 (configuration not stated)
3,133 to 134 °C,CCCCS(=O)(=O)NC(=O)CCc1cc(OC(C)C)nn1Cc1ccc(Cl)cc1Cl
4,229 to 230 °C,CCOC(=O)c1cn2c(cc(Cl)c3ccc(Cl)cc32)n1
5,132 to 133 °C,O=C(NCC1CC1)N1CC(Oc2cccc(C(F)(F)F)c2)C1
6,145 to 148 °C,CC(=O)OC1CCC2(C)C(=CCC3C2CCC2(C)C(n4nccn4)=C(C=O)CC32)C1 (configuration not stated)
7,157 to 158 °C,CSc1nc2ncccc2c2nnc(SCc3ccccc3)n12
8,240 °C,CCOC(=O)c1cnc2cccc(O)c2c1
9,106 to 107 °C,CCO[PH](=O)Cc1cc(Oc2ccc(C(F)(F)F)cc2Cl)ccc1[N+](=O)[O-] (configuration not stated)
10,134 to 136 °C,Cc1ccccc1C1SCCCN1C(=S)Nc1cccc(Cl)c1 (configuration not stated)
11,73 to 75 °C,CCCCCCCCNC(=O)OC1CCN(C(=O)Oc2ccc(Oc3ccccc3)cc2)CC1
12,120 to 121 °C,Cc1ccc(C)c(NC(=O)C(C)c2ccc(N)c(N)c2)c1 (configuration not stated)
13,192 to 193 °C,Nc1nc2ccccc2c2c1nc(CC1CC1)n2CCOc1ccccc1
14,214 to 217 °C,CC(C)n1c(=O)nc(-c2ccc3c(c2)OCCO3)c2cc3c(cc21)OCO3
15,163 to 164 °C,COc1ccc(CCCN2CCc3cc(O)ccc3C2)cc1
16,55 °C,Cc1nc(Br)n(COCc2ccccc2)c1Sc1ccccc1
17,178 °C,COc1ccc(N2CCN(n3cnn(C)c3=O)CC2)cc1
18,128 to 130 °C,CC(C)(C)[C@@H](CO)NS(=O)(=O)c1ccc(Cl)cc1
19,163 to 166 °C,OCCOc1ccc(Nc2cc(Nc3ccccc3F)ncn2)cc1
20,91 to 92 °C,Cc1c(C)c2c(c(C)c1N)CC(C)(CN1CCC(CCc3ccccc3)CC1)O2 (configuration not stated)
21,180 to 182 °C,CCc1cnc2c(NC(=O)c3c(Cl)cccc3Cl)cccc2c1CCO
22,127 to 128 °C,CSCCCOc1nc(-c2ccc(F)cc2C)c2ccc(=O)n(-c3c(F)cccc3F)c2n1
23,230 °C,CCC1(C)C(=CC=C2C(=O)c3ccccc3C2=C(C#N)C#N)N2CCc3cccc1c32 (configuration not stated)
24,188 to 191 °C,CC(=O)NC[C@H]1CN(c2ccc(C3=CCN(C(=O)COC(C)=O)CC3)c(F)c2)C(=O)O1

row,melting point,SMILES
1,89 to 90 °C,C#Cc1cnn2c(C)cc(-c3ccc(C(F)(F)F)cc3)nc12
2,116 to 120 °C,CCc1cc(-c2ccc(-c3ccn(CC(=O)OC)n3)cc2)ccc1OC
3,174 °C,COc1ccc(-c2ccc(C(=O)Nc3ccc4cc(CN5CCCC5)cnc4c3)c(F)c2)cc1
4,90 to 92 °C,CC(=O)OCC(=O)Nc1cccc(N2CCCCC2)c1C#N
5,121 to 123 °C,COC(=O)c1cc(OC)cc2cc(-c3ccc(OC)c(F)c3)oc12
6,132 °C,CS(=O)(=O)Nc1cnn(CCCCN2CCN(c3ncccn3)CC2)c1
7,90 to 91 °C,CCCCOc1c(CO)n(CC(C)C)c(=O)c2ccc(OCc3ccccc3)cc12
8,210 to 212 °C,Cc1cc2c(-c3ccccc3)c3n(c(=O)c2cc1C)CCCC3O (configuration not stated)
9,166 to 167 °C,O=C(O)CC=CC12CC(c3ccccc31)c1ccccc12
10,87 to 89 °C,CC(CCCC(=O)O)(c1ccc(OCc2ccc3ccccc3n2)cc1)c1ccc(OCc2ccc3ccccc3n2)cc1
11,116 to 118 °C,CCCCc1nc2ccccn2c(=O)c1-c1ccc(NC2CCN(C(=O)OC(C)(C)C)C2)cc1 (configuration not stated)
12,162 to 163 °C,COCn1ccnc1C(O)(c1ccc(Cl)cc1)c1ccc(C(C)(C)C)cc1 (configuration not stated)
13,245 to 246 °C,Nc1nc(Nc2ccccc2)sc1C(=O)c1c(Cl)cccc1Cl
14,112 to 116 °C,CNC(=O)N(C)c1nnc(SCc2cccc(F)c2)s1
15,216 to 217 °C,CN(c1ccc(O)cc1)c1nc2cc(Cl)ccc2o1
16,181 to 182 °C,CC(=O)NC[C@H]1CN(c2ccc(N3CCC(=C(C)C#N)CC3)c(F)c2)C(=O)O1
17,76 to 77 °C,N#CC1=CCN(c2ncccc2F)CC1
18,149 to 150 °C,CCN(c1cc(C(=O)OC)c(O)c2ncc(Cc3ccc(F)cc3)cc12)S(C)(=O)=O
19,233 to 237 °C,COc1cc2c(cc1OC)C(c1sc(N)nc1C)=NCC2
20,122 to 125 °C,COC(=O)C(Oc1ccc(Cl)cc1)c1ccc(I)cc1 (configuration not stated)
21,103 to 105 °C,COc1ccc2c(c1)C(=O)C(=Cc1cccc([N+](=O)[O-])c1)C(C)(C)O2
22,178 to 180 °C,CCNc1cccnc1N1CCN(C(=O)c2ccc(C(=O)NCCO)cn2)CC1

row,SMILES,melting point
1,O=C1NC2CCCCN2C12CCNCC2 (configuration not stated),193 °C
2,CCOC(=O)C(NC(C)=O)(C(=O)OCC)C1=Nc2ccc(C#N)cc2C(c2ccccc2F)=NC1,138 to 140 °C

# Reference: a melting point compilation (Tetko et al.; mined from patent text by program, amines drawn as free bases though some values may be those of a salt)
